Experimental data as given in patent US20110178104A1, “Anti-Heparin Compounds” (POLYMEDIX INC., priority 2010, published 2011).
Values after ≈ are worked out from the molar mass of the structure shown.

Legend:
in vitro = format: cell-based, human; details: human, pH 7.4
How it was run: (§1)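 Pooled human red cells, washed and diluted from a 0.22% stock suspension in TBS pH 7.4, were shaken with two-fold dilutions (1000 to 0.48 µg/ml) for 1 h at 37 °C. Released hemoglobin in the supernatant was read at OD405. EC50 came from a four-parameter logistic fit, with melittin as positive control.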

[1] = test system: isolated human erythrocytes; assay: cells; format: cell-based; details: Homo sapiens, Erythrocyte, 1 h, human RBC, 1 hour at 37° C.; read-out: Hemolysis EC50
How it was run: as §1

Unfractionated heparin = assay: aPTT clotting assay, UFH 0.4 U/mL in plasma (Example 10); format: biochemical; details: unfractionated heparin 0.4 U/mL in plasma; aPTT clotting
Method: aPTT clotting Assay: Unfractionated heparin was mixed with plasma at a final concentration of 0.4 U/mL (or concentration which increases aPTT time to between 120 and 300 seconds). […] The ACL Elite Hemostasis analyzer (Beckman Coulter™) was used to add aPTT reagent (HemosIL SynthASil) to supplemented plasma. Clotting was initiated by addition of CaCl2 and time to clot was recorded.

enoxaparin = assay: FXa amidolytic assay (Example 10), enoxaparin; details: read-out: Enox FXa EC50; enoxaparin 0.1 ug/ml; human antithrombin, bovine Factor Xa
tinzaparin = assay: FXa amidolytic assay (Example 10), tinzaparin; details: read-out: Tinzap FXa EC50; tinzaparin 0.1 ug/ml; human antithrombin, bovine Factor Xa
fondaparinux = assay: FXa amidolytic assay (Example 10), fondaparinux; details: read-out: Fondap FXa EC50; fondaparinux 0.02 μg/mL; human antithrombin, bovine Factor Xa
UFH = assay: FXa amidolytic assay (Example 10), UFH; details: read-out: Heparin FXa uM EC50; UFH 0.03 units/mL; human antithrombin, bovine Factor Xa

SMILES | EC50 (Unfractionated heparin) [nM] | EC50 (enoxaparin) [nM] | EC50 (tinzaparin) [nM] | EC50 (fondaparinux) [nM] | EC50 (UFH) [µM] | hemolysis at 1 h (in vitro) [%] | EC50 [1] [µg/mL]
COc1ccc(NC(=O)[C@H](CCCNC(=N)N)NC(=O)c2cc(NC(=O)[C@H](CCCNC(=N)N)NC(=O)c3cc(NC(=O)[C@H](CCCNC(=N)N)NC(=O)c4cc(NC(=O)[C@@H](N)CCCNC(=N)N)ccc4OC)ccc3OCC(=O)O)ccc2OC)cc1C(=O)N[C@@H](Cc1c[nH]c2ccccc12)C(N)=O [Compound 313] | 3810 | 107 | 115 | 117 | 0.196 | 20 | ~100 (≈ 68.1 µM)
COc1ccc(NC(=O)[C@H](CCCNC(=N)N)NC(=O)c2cc(NC(=O)[C@H](CCCNC(=N)N)NC(=O)c3cc(NC(=O)[C@H](CCCNC(=N)N)NC(=O)c4cc(NC(=O)[C@@H](N)CCCNC(=N)N)ccc4OC)ccc3OC)ccc2OC)cc1C(=O)NCC(=O)O [Compound 284] | 1560 | 144 | 138 | 390 | – | 50 | 1000 (≈ 771 µM)
COc1ccc(NC(=O)[C@H](CCCNC(=N)N)NC(=O)c2cc(NC(=O)[C@H](CCCNC(=N)N)NC(=O)c3cc(NC(=O)[C@H](CCCNC(=N)N)NC(=O)c4cc(NC(C)=O)ccc4OC)ccc3OC)ccc2OCC(=O)O)cc1C(=O)N[C@@H](Cc1c[nH]c2ccccc12)C(N)=O [Compound 312] | > 10000 | 152 | 169 | 120 | 0.295 | 25 | 1000 (≈ 738 µM)
COc1ccc(NC(=O)[C@H](CCCNC(=N)N)NC(=O)c2cc(NC(=O)[C@H](CCCNC(=N)N)NC(=O)c3cc(NC(=O)[C@H](CCCNC(=N)N)NC(=O)c4cc(NC(C)=O)ccc4OC)ccc3OCC(=O)O)ccc2OC)cc1C(=O)N[C@@H](Cc1c[nH]c2ccccc12)C(N)=O [Compound 314] | > 10000 | 208 | 199 | 265 | 0.295 | 25 | 1000 (≈ 738 µM)

The next lines start with results.

EC50 (Unfractionated heparin) [nM] | EC50 (enoxaparin) [nM] | EC50 (tinzaparin) [nM] | EC50 (fondaparinux) [nM] | EC50 (UFH) [µM] | SMILES | hemolysis at 1 h (in vitro) [%] | EC50 [1] [µg/mL]
> 10000 | 169 | 182 | 218 | – | COc1ccc(NC(=O)[C@H](CCCCN)NC(=O)c2cc(NC(=O)[C@H](CCCCN)NC(=O)c3cc(NC(=O)[C@H](CCCCN)NC(=O)c4cc(NC(=O)[C@@H](N)Cc5c[nH]c6ccccc56)ccc4OC)ccc3OC)ccc2OC)cc1C(=O)N[C@@H](Cc1c[nH]c2ccccc12)C(=O)O [Compound 330] | 75 | 5.4 (≈ 3.94 µM)
7910 | 202 | 203 | 371 | – | COc1ccc(NC(=O)[C@@H](CCCNC(=N)N)NC(=O)c2cc(NC(=O)[C@@H](CCCNC(=N)N)NC(=O)c3cc(NC(=O)[C@@H](CCCNC(=N)N)NC(=O)c4cc(NC(=O)[C@H](N)Cc5c[nH]c6ccccc56)ccc4OC)ccc3OC)ccc2OCC(=O)O)cc1C(N)=O [Compound 329] | 50 | 18 (≈ 13.7 µM)
2110 | 195 | 158 | 417 | – | COc1ccc(NC(=O)[C@@H](CCCNC(=N)N)NC(=O)c2cc(NC(=O)[C@@H](CCCNC(=N)N)NC(=O)c3cc(NC(=O)[C@@H](CCCNC(=N)N)NC(=O)c4cc(NC(=O)[C@H](N)CCC(=O)O)ccc4OC)ccc3OC)ccc2OC)cc1C(N)=O [Compound 322] | 50 | 1000 (≈ 826 µM)
